Like-named read-outs stand apart in the source and are kept apart here.
What was measured:
[1] = target: SARS-CoV-2 3CLpro (Severe acute respiratory syndrome coronavirus 2, UniProt P0DTD1); experiment: Enzyme Activity Test; type: biochemical
[2] = tested on: SARS-CoV-2; experiment: SARS-CoV-2/Hela-ACE Test; type: cell-based
[3] = Toxicity Testing in Uninfected Cells; type: cell-based; details: human, Cell-Titer Glo cell viability
Protocol: Toxicity Testing in Uninfected Cells
The compound was transferred to a 1536-well plate (Corning No. 9006BC), and then Hela-ACE cells were added (cell density: 600 cells/5 microliter of medium MEM with 2% FBS). After the assay plate was incubated at 37°C in 5% CO2 for 48 hours, cell viability was tested. 2 µL of 50% Cell-Titer Glo (Promega No G7573) was diluted in water and added to a cell assay plate, and then a value on EnVision Plate Reader (Perkin Elmer) was read.

[4] = Severe acute respiratory syndrome coronavirus 2, Hela-ACE cells infected with SARS-CoV-2 (USA-WA1/2020), MOI 0.75-1, 48 hours, read-out: Hela ACE2-CoV-2 EC50
[5] = uninfected Hela-ACE (HeLa ACE2) cells

SMILES: Cc1cncc(N2C(=O)CCN(c3cc(Cl)cc(OCC(F)(F)F)c3)C2=O)c1C [Example 47]
- IC50 [1]: 55 nM

SMILES: O=C1CCN(c2cc(Cl)cc(OCC(F)(F)F)c2)C(=O)N1c1cncc2ccccc12 [Example 2]
- EC50 [2, 4]: 0.03 µM
- CC50 at 48 h [3, 5]: > 99 µM

SMILES: O=C1CCN(c2cc(Cl)cc(OCC3CC3)c2)C(=O)N1c1cncc2ccccc12 [Example 3]
- EC50 [2, 4]: 0.064 µM
- CC50 at 48 h [3, 5]: 73.4 µM

SMILES: O=C1CCN(c2cc(Cl)cc(OCC3CC(F)(F)C3)c2)C(=O)N1c1cncc2ccccc12 [Example 5]
- EC50 [2, 4]: 0.074 µM
- CC50 at 48 h [3, 5]: > 99 µM

SMILES: Cc1ccc2cncc(N3C(=O)CCN(c4cc(Cl)cc(OCC(F)(F)F)c4)C3=O)c2c1 [Example 48]
- EC50 ([2]; Severe acute respiratory syndrome coronavirus 2, HeLa, 48 h, read-out: Hela ACE2-CoV-2 EC50 (µM)): 0.052 µM
- CC50 at 48 h ([3]; hela-ace2 cells, uninfected Hela-ACE cells): > 99 µM
- IC50 [1]: 50 nM

SMILES: O=C1N(c2cc(Cl)cc(OCC(F)(F)F)c2)CC2(CC2)C(=O)N1c1cncc2ccccc12 [Example 33]
- EC50 [2, 4]: 0.087 µM
- CC50 at 48 h [3, 5]: > 99 µM

SMILES: O=C1CCN(c2cc(Cl)cc(N3CC4(COC4)C3)c2)C(=O)N1c1cncc2ccccc12 [Example 23]
- EC50 [2, 4]: 0.035 µM
- CC50 at 48 h [3, 5]: > 99 µM

SMILES: O=C1CCN(c2cc(F)c(Cl)c(OCC(F)(F)F)c2)C(=O)N1c1cncc2ccccc12 [Example 55]
- EC50 [2, 4]: 0.072 µM
- CC50 at 48 h [3, 5]: 74 µM

SMILES: O=C1CCN(c2cc(Cl)cc(OCC(F)(F)F)c2)C(=O)N1c1cncc2ccc(F)cc12 [Example 49]
- IC50 [1]: 43 nM

From EP4775569A1, “3CL PROTEASE INHIBITOR FOR TREATING OR PREVENTING CORONAVIRUS INFECTIONS AND USE THEREOF” (The Global Health Drug Discovery Institute, priority 2023, dated 2025)
